In patent US9670519B2, “Methods for reducing accumulation of lactate during culturing and method for producing polypeptide” (Biocon Limited, priority 2011, dated 2017):
Like-named read-outs stand apart in the source and are kept apart here.

How the values were obtained:
[1] = system: Chinese Hamster Ovary (CHO) cells genetically engineered to produce the Anti VEGF-A antibody; settings: for Residual Lactate: fedbatch; for further reduction in the accumulation of lactate in presence of said salt (versus control) / reduction of the accumulation of lactate in the media with the added salt: over the run till 7th day
Experimental: (§1) In another embodiment of the present disclosure, the level of lactate in the medium is analyzed using the device YSI 7100 MBS Analyzer.
(§2) The level of lactate is analyzed for all the following experiments in the below examples by the use of the YSI 7100 MBS Analyzer. The pH for all the below experiments as recited in the following examples are maintained between pH 6.85-7.2. The level of Oxygen is also maintained by the oxygen levels are maintained by agitation in the shaker incubator. In all the below mentioned examples, the concentration of the added salt is the concentration of the salt as present in the medium. The temperature can be suitably varied, based on the nature of the cells used and other related parameters.
(§3) The cell culturing was performed in fedbatch mode. In the cell culture, the mammalian host cells used were Chinese Hamster Ovary (CHO) cells and HyClone CDM4NS0 culture medium was supplied initially. The CHO cells were genetically engineered to produce the Anti VEGF-A antibody. The copper sulphate pentahydrate salt was added in the medium at a concentration of 0.4 mM. In contrast, there was no addition of any copper salt in the control medium. The production fermentation run started with an initial cell count of 0.3-0.45×10^6 cells/ml at 37±1° C., the first 3-4 days were dedicated to grow the cells in batch phase. In the next step, the temperature is lowered to 31+/−1° C. and the run is continued till 7th day. […] The produced Anti VEGF-A antibody was then collected from the media using the technique of Affinity Chromatography.
as §3, with “fedbatch.” for “fedbatch mode.”, “zinc” for “copper”, “hepta hydrate” for “pentahydrate”
as §3, with “fedbatch mode is employed.” for “fedbatch mode.”, “VEGF-A Antibody.” for “VEGF-A antibody.”, “salt is also” for “salt was”, “of 0.2” for “of 0.4”, “to 31±1°” for “to 31+/−1°”, “VEGF-A Antibody” for “VEGF-A antibody”
The cell culturing was performed in fedbatch mode. In the cell culture, the mammalian host cell used were Chinese Hamster Ovary (CHO) cells and HyClone CDM4NS0 culture medium was supplied initially. The CHO cells were genetically engineered to produce the Anti VEGF-A Antibody. The zinc sulphate hepta hydrate salt is also added in the medium at a concentration of 0.2 mM. In contrast, there was no addition of any zinc salt in the control medium.

[2] = system: Chinese Hamster Ovary (CHO) cells genetically engineered to produce the Anti TNF antibody; settings: for Residual Lactate: salt 0.4 mM in HyClone CDM4NS0 medium, fedbatch; for further reduction in the accumulation of lactate in presence of said salt (versus control) / reduction of the accumulation of lactate in the media with the added salt: salt 0.4 mM, over the run till 7th day
Experimental: as §1, §2
as §3, with “Anti TNF” for “Anti VEGF-A”, “salt is also” for “salt was”, “to 31±1°” for “to 31+/−1°”
(§4) The cell culturing was performed in a fedbatch mode. In the cell culture, the mammalian host cells used were Chinese Hamster Ovary (CHO) cells and HyClone CDM4NS0 culture medium was supplied initially. The CHO cells were genetically engineered to produce the Anti TNF antibody. The zinc sulphate hepta hydrate salt is also added in the medium at a concentration of 0.4 mM. In contrast, there was no addition of any zinc salt in the control medium. The production fermentation run started with an initial cell count of 0.3-0.45×10^6 cells/ml at 37±1° C., the first 3-4 days were dedicated to grow the cells in batch phase. In the next step, the temperature is lowered to 31±1° C. and the run is continued till 7th day. […] The produced Anti TNF antibody was then collected from the media using the technique of Affinity Chromatography.

[3] = system: Chinese Hamster Ovary (CHO) cells genetically engineered to produce the Anti Her-2 antibody; settings: for Residual Lactate: salt 0.4 mM in HyClone CDM4NS0 medium, fedbatch; for further reduction in the accumulation of lactate in presence of said salt (versus control) / reduction of the accumulation of lactate in the media with the added salt: salt 0.4 mM, over the run till 7th day
Experimental: as §1, §2
as §3, with “Her-2” for “VEGF-A”
as §4, with “in” for “in a”, “Her-2” for “TNF”, “was” for “is also”, “31+/−1°” for “31±1°”

[4] = system: Chinese Hamster Ovary (CHO) cells genetically engineered to produce the Anti CD6 Antibody; settings: for Residual Lactate: salt 0.4 mM in HyClone CDM4NS0 medium, fedbatch
Experimental: as §1, §2
as §4, with “in” for “in a”, “cellculture,” for “cell culture,”, “CD6 Antibody.” for “TNF antibody.”, “is” for “is also”, “CD6 Antibody” for “TNF antibody”

[5] = salt 0.2 mM in HyClone CDM4NS0 medium, age 72 hours
[6] = salt 0.2 mM in HyClone CDM4NS0 medium, age 96 hours
[7] = salt 0.2 mM in HyClone CDM4NS0 medium, age 120 hours
[8] = salt 0.2 mM in HyClone CDM4NS0 medium, age 144 hours
[9] = salt 0.2 mM in HyClone CDM4NS0 medium, age 168 hours
[10] = salt 0.4 mM in HyClone CDM4NS0 medium, age 72 hours
[11] = salt 0.4 mM in HyClone CDM4NS0 medium, age 96 hours
[12] = salt 0.4 mM in HyClone CDM4NS0 medium, age 120 hours
[13] = salt 0.4 mM in HyClone CDM4NS0 medium, age 144 hours
[14] = salt 0.4 mM in HyClone CDM4NS0 medium, age 168 hours
[15] = salt 0.4 mM, over the run till 7th day

| Structure (SMILES) | Residual Lactate [1, 5] | Residual Lactate [1, 6] | Residual Lactate [1, 7] | Residual Lactate [1, 8] | Residual Lactate [1, 9] | further reduction in the accumulation of lactate in presence of said salt (versus control) ([1]; salt 0.2 mM) | reduction of the accumulation of lactate in the media with the added salt ([1]; salt 0.2 mM) | Residual Lactate [1, 10] | Residual Lactate [1, 11] | Residual Lactate [1, 12] | Residual Lactate [1, 13] | Residual Lactate [1, 14] | further reduction in the accumulation of lactate in presence of said salt (versus control) ([1]; salt 0.4 mM) | reduction of the accumulation of lactate in the media with the added salt ([1]; salt 0.4 mM) | Residual Lactate ([2]; age 96 hours) | Residual Lactate ([2]; age 120 hours) | Residual Lactate ([2]; age 144 hours) | Residual Lactate ([2]; age 168 hours) | further reduction in the accumulation of lactate in presence of said salt (versus control) [2] | reduction of the accumulation of lactate in the media with the added salt [2] | also measured |
| --- | --- | --- | --- | --- | --- | --- | --- | --- | --- | --- | --- | --- | --- | --- | --- | --- | --- | --- | --- | --- | --- |
| O.O.O.O.O.O=S(=O)([O-])[O-].[Cu+2] [Copper salt, copper sulphate pentahydrate] | 23.3 mM | 14.9 mM | 7.9 mM | 5.8 mM | 2.7 mM | about 6.17% | about 85.40% | 16 mM | 14.8 mM | 5.9 mM | 3.4 mM | 2 mM | about 26.5% | about 87.5% | 20.3 mM | 16.3 mM | 13.2 mM | 14.6 mM | about 13.05% | about 28.43% | Residual Lactate ([2]; age 72 hours): 20.4 mM; Residual Lactate ([3]; age 72 hours): 16 mM; Residual Lactate ([3]; age 96 hours): 11.8 mM; Residual Lactate ([3]; age 120 hours): 7.4 mM; Residual Lactate ([3]; age 144 hours): 6.9 mM; Residual Lactate ([3]; age 168 hours): 5.6 mM; further reduction in the accumulation of lactate in presence of said salt (versus control) [3]: about 14.5%; reduction of the accumulation of lactate in the media with the added salt [3]: about 65% |
| O.O.O.O.O.O.O.O=S(=O)([O-])[O-].[Zn+2] [Zinc salt, zinc sulphate hepta hydrate] | 23.3 mM | 16.3 mM | 10 mM | 5.9 mM | 3.4 mM | about 9.18% | about 88.41% | 16.6 mM | 14.7 mM | 7.6 mM | 6.2 mM | 4.5 mM | about 11.57% | about 72.89% | 19.6 mM | 16.4 mM | 13.8 mM | 15 mM | about 6.09% | about 23.46% | Residual Lactate ([4]; age 72 hours): 18 mM; Residual Lactate ([4]; age 96 hours): 11.2 mM; Residual Lactate ([4]; age 120 hours): 6.2 mM; Residual Lactate ([4]; age 144 hours): 3 mM; Residual Lactate ([4]; age 168 hours): 3.2 mM; further reduction in the accumulation of lactate in presence of said salt (versus control) [4, 15]: about 11.67%; reduction of the accumulation of lactate in the media with the added salt [4, 15]: about 82.22%; Residual Lactate ([3]; age 72 hours): 16 mM; Residual Lactate ([3]; age 96 hours): 11.8 mM; Residual Lactate ([3]; age 120 hours): 7.4 mM; Residual Lactate ([3]; age 144 hours): 6.9 mM; Residual Lactate ([3]; age 168 hours): 5.6 mM; further reduction in the accumulation of lactate in presence of said salt (versus control) [3]: about 30.38%; reduction of the accumulation of lactate in the media with the added salt [3]: about 64.88% |
